Test results as given in patent US6914045B2, “Glycopeptide antibiotics” (Wyeth Holdings Corporation, priority 2001, dated 2005).
In brackets after ≈: the same amount, converted by molar mass. Square brackets hold non-standard residues; d marks the D form. Peptide text beside a SMILES is read from it. * marks the point of attachment. ξ: configuration not given here. ξEnduracididine(βξ-OH,4'ξ) = N=C1NCC(C(O)C(N)C(=O)O)N1; X2 = OCC1OC(OC2C(CO)OC(*)C(O)C2O)C(O)C(O)C1O

How the values were obtained:
Test in all cases: in vitro antibacterial evaluation, MIC by broth dilution
Format in all cases: cell-based
[1] = tested on: Enterococcus sp.; details: broth dilution, 18 hours at 35° C.
Outline: (§1)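 MIC = lowest antibiotic concentration preventing visible growth; inoculum 5×10^5 CFU/mL; drug range 64-0.06 μg/mL; Muller-Hinton II […]; NCCLS M7-A2 guidance.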

[2] = tested on: Escherichia coli; details: 18 hours at 35° C.
Outline: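 Inoculum 5×10^5 CFU/mL; concentrations 64 to 0.06 μg/mL; MIC defined as lowest inhibitory level. Conducted by broth dilution under NCCLS guidelines.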

[3] = tested on: Staphylococcus sp.; details: broth dilution, 18 hours at 35° C.
Outline: as §1

[4] = tested on: Streptococcus sp.; details: broth dilution, 18 hours at 35° C.
Outline: as §1

MIC Enterococcus avium (GC 4558) ([1]; Enterococcus avium (GC 4558)): 128 µg/mL (≈ 114 µM) | MIC Enterococcus faecalis (ATCC 29212) ([1]; Enterococcus faecalis (ATCC 29212)): >128 µg/mL | MIC Enterococcus faecalis (GC 4553) ([1]; Enterococcus faecalis (GC 4553)): >128 µg/mL | MIC Enterococcus faecalis (GC 4554) ([1]; Enterococcus faecalis (GC 4554)): >128 µg/mL | MIC Enterococcus faecalis (GC 6189) ([1]; Enterococcus faecalis (GC 6189)): >128 µg/mL | MIC Enterococcus faecium (GC 2243) ([1]; Enterococcus faecium (GC 2243)): >128 µg/mL | MIC Enterococcus faecium (GC 4556) ([1]; Enterococcus faecium (GC 4556)): >128 µg/mL | MIC Enterococcus faecium (GC 4557) ([1]; Enterococcus faecium (GC 4557)): 128 µg/mL (≈ 114 µM) | MIC Enterococcus faecalis (ATCC 29212) ([1]; strain ATCC 29212): >128 µg/mL | MIC Enterococcus faecalis (GC 2242) ([1]; strain GC 2242): >128 µg/mL | MIC Enterococcus faecium (GC 2243) ([1]; strain GC 2243): >128 µg/mL | MIC Enterococcus faecalis (GC 2691) ([1]; strain GC 2691): >128 µg/mL | MIC Enterococcus faecalis (GC 3059) ([1]; strain GC 3059): >128 µg/mL | MIC Enterococcus faecalis (GC 4552) ([1]; strain GC 4552): >128 µg/mL | MIC Enterococcus faecalis (GC 4553) ([1]; strain GC 4553): >128 µg/mL | MIC Enterococcus faecalis (GC 4554) ([1]; strain GC 4554): >128 µg/mL | MIC Enterococcus faecium (GC 4556) ([1]; strain GC 4556): >128 µg/mL | MIC Enterococcus faecium (GC 4557) ([1]; strain GC 4557): 128 µg/mL (≈ 114 µM) | MIC Enterococcus avium (GC 4558) ([1]; strain GC 4558): 128 µg/mL (≈ 114 µM) | MIC Enterococcus faecalis (GC 6189) ([1]; strain GC 6189): >128 µg/mL | MIC Escherichia coli (ATCC 25922) ([2]; Escherichia coli (ATCC 25922)): >128 µg/mL | MIC Escherichia coli (GC 4559) ([2]; Escherichia coli (GC 4559)): >128 µg/mL | MIC Escherichia coli (GC 4560) ([2]; Escherichia coli (GC 4560)): >128 µg/mL | MIC Coagulase Negative Staphylococcus (GC 4547) [3]: >128 µg/mL | MIC Coagulase Negative Staphylococcus (GC 4548) [3]: >128 µg/mL | MIC Coagulase Negative Staphylococcus (GC 4549) [3]: >128 µg/mL | MIC Coagulase Negative Staphylococcus (GC 4551) [3]: >128 µg/mL | MIC Staphylococcus aureus (ATCC 29213) [3]: >128 µg/mL | MIC Staphylococcus aureus (GC 1131) [3]: >128 µg/mL | MIC Staphylococcus aureus (GC 3051) [3]: >128 µg/mL | MIC Staphylococcus aureus (GC 3053) [3]: >128 µg/mL | MIC Staphylococcus aureus (GC 4541) [3]: >128 µg/mL | MIC Staphylococcus aureus (GC 4542) [3]: >128 µg/mL | MIC Staphylococcus aureus (GC 4544) [3]: >128 µg/mL | MIC Staphylococcus aureus (GC 4545) [3]: >128 µg/mL | MIC Staphylococcus aureus-SMITH (GC 4543) [3]: >128 µg/mL | MIC Staphylococcus aureus (ATCC 29213) ([3]; strain ATCC 29213): >128 µg/mL | MIC Staphylococcus aureus (GC 1131) ([3]; strain GC 1131): >128 µg/mL | MIC Staphylococcus aureus (GC 3051) ([3]; strain GC 3051): >128 µg/mL | MIC Staphylococcus aureus (GC 3053) ([3]; strain GC 3053): >128 µg/mL | MIC Staphylococcus aureus (GC 4541) ([3]; strain GC 4541): >128 µg/mL | MIC Staphylococcus aureus (GC 4542) ([3]; strain GC 4542): >128 µg/mL | MIC Staphylococcus aureus (GC 4544) ([3]; strain GC 4544): >128 µg/mL | MIC Staphylococcus aureus (GC 4545) ([3]; strain GC 4545): >128 µg/mL | MIC Coagulase Negative Staphylococcus (GC 4547) ([3]; strain GC 4547): >128 µg/mL | MIC Coagulase Negative Staphylococcus (GC 4548) ([3]; strain GC 4548): >128 µg/mL | MIC Coagulase Negative Staphylococcus (GC 4549) ([3]; strain GC 4549): >128 µg/mL | MIC Coagulase Negative Staphylococcus (GC 4551) ([3]; strain GC 4551): >128 µg/mL | MIC Staphylococcus aureus-SMITH (GC 4543) ([3]; strain SMITH GC 4543): >128 µg/mL | MIC Streptococcus pneumoniae (ATCC 6301) ([4]; strain ATCC 6301): >128 µg/mL | MIC Streptococcus pneumoniae (GC 1894) ([4]; strain GC 1894): 128 µg/mL (≈ 114 µM) | MIC Streptococcus pyogenes (GC 4563) ([4]; strain GC 4563): >128 µg/mL | MIC Streptococcus agalactiae (GC 4564) ([4]; strain GC 4564): >128 µg/mL | MIC Streptococcus pneumoniae (GC 4565) ([4]; strain GC 4565): >128 µg/mL
SMILES: N=C1NCC(C(O)C2NC(=O)C(Cc3ccc(OC4OC(CO)C(OC5OC(CO)C(O)C(O)C5O)C(O)C4O)cc3)NC(=O)C(Cc3ccccc3)NC(=O)CNC(=O)C(CO)NC(=O)C(C(O)C3CNC(=N)N3)NC2=O)N1 (stereo not drawn) [Example 296, Cyclo[glycylphenylalanyl-O-(4-O-hexopyranosylhexopyranosyl)tyrosyl-3-(2-iminoimidazolidin-4-yl)seryl-3-(2-iminoimidazolidin-4-yl)serylseryl]] (cyclo(GFY(X2)[ξEnduracididine(βξ-OH,4'ξ)][ξEnduracididine(βξ-OH,4'ξ)]S); configuration not given here)
MIC Staphylococcus haemolyticus (GC 4546) [3]: >128 µg/mL | MIC Staphylococcus haemolyticus (GC 4546) ([3]; strain GC 4546): >128 µg/mL
